We go through eleven compounds from US20230055237A1, “COMPOUNDS AND METHODS FOR THE TREATMENT OF CYSTIC FIBROSIS” (Flatley Discovery Lab, LLC, priority 2019, published 2023).

This assay has as its target T1, CFTR (Homo sapiens, UniProt P13569, DEL508-508).
T1 construct: Primary CF airway epithelial cells were obtained from the UNC Cystic Fibrosis Tissue Procurement and Cell Culture Core; host or cells: primary CF airway epithelial cells, differentiated at the air-liquid interface
Kind of assay: Equivalent current assay in primary CF airway epithelial cells (NAUC, combination with 1st site corrector FDL169 or VX-809). Format: cell-based. The note with it: 37° C., 24 h; for Nauc @ 10 μM: test compound 10 μM in combination with 1st site corrector VX-809 (3 μM); for Nauc @ 1 μM: test compound 1 μM in combination with 1st site corrector VX-809 (3 μM); for Nauc @ 3 μM: test compound 3 μM in combination with 1st site corrector VX-809 (3 μM).

T1 sequence (P13569 with tags, fused parts or gaps DEL508-508): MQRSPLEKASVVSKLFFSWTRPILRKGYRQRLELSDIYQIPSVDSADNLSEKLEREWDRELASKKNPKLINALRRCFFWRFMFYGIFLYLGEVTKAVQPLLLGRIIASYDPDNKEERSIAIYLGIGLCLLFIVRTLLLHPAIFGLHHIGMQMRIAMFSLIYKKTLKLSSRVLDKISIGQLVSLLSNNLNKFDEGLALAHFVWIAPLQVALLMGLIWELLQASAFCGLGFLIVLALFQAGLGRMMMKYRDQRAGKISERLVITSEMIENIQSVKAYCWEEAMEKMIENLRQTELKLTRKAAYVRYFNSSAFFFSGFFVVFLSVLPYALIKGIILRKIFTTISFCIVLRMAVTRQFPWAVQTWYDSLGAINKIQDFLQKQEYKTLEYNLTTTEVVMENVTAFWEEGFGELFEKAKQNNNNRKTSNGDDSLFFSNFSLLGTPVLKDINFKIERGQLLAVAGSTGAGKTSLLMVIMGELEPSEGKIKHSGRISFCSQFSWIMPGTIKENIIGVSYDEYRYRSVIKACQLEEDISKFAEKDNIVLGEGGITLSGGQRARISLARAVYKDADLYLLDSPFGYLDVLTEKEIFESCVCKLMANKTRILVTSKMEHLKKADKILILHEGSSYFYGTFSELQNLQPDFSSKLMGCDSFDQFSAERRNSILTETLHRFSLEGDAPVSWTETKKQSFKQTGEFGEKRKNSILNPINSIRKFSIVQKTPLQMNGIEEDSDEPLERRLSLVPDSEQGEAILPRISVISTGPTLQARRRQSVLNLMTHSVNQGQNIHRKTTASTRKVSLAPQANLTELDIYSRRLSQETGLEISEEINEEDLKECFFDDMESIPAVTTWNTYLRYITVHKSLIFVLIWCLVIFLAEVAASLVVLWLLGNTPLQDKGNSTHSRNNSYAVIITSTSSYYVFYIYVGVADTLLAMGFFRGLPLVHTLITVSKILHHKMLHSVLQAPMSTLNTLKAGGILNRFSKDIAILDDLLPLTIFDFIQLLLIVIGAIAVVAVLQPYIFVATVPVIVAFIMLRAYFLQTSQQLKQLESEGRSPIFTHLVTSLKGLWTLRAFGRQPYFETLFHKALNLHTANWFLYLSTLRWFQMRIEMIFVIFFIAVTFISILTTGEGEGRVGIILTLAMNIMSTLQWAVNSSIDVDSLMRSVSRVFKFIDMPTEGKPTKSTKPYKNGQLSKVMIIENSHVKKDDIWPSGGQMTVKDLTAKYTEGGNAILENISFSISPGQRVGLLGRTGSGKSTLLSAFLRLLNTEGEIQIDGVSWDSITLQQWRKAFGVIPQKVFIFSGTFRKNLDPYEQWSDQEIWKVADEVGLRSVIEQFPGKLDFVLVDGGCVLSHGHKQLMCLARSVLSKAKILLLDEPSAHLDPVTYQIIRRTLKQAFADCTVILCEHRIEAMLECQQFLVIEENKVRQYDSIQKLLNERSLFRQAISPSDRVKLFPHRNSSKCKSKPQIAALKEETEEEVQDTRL

Consider `CC(C)(C)c1cccc(C(C)(C)CNC(=O)C2C3CC(F)(F)CN3C3(C(=O)Nc4c(Cl)cc(Cl)cc43)C2C(=O)O)c1` (centres unmarked) [Example 64], for which the “Nauc @ 10 μM” value is listed as “+++ (NAUC “+++” refers to an observed NAUC>170% of positive control)”.

As to `O=C(Nc1cc(Cl)cc(Cl)c1)C1C(C(F)(F)c2ccncc2)NC2(C(=O)Nc3c(Cl)cc(Cl)cc32)C1C(=O)O` (centres unmarked) [Example 66.9a, 5,7-dichloro-4′-((3,5-dichlorophenyl)carbamoyl)-5′-(difluoro(pyridin-4-yl)methyl)-2-oxospiro[indoline-3,2′-pyrrolidine]-3′-carboxylic acid], the “Nauc @ 10 μM” value is on record as “+ (NAUC “+” refers to an observed NAUC <140% of positive control)”.

As to `O=C(Nc1cc(Cl)cc(Cl)c1)C1C(C(F)(F)c2ccc(Cl)cc2)NC2(C(=O)Nc3c(Cl)cc(Cl)cc32)C1C(=O)O` (centres unmarked) [Example 67.9a, 5,7-dichloro-5,7′-((4-chlorophenyl)difluoromethyl)-4′-((3,5-dichlorophenyl)carbamoyl)-2-oxospiro[indoline-3,2′-pyrrolidine]-3′-carboxylic acid], the “Nauc @ 10 μM” value is given as “+ (NAUC “+” refers to an observed NAUC <140% of positive control)”.

For `O=C(Nc1cc(Cl)cc(Cl)c1)C1C(C(F)(F)c2ccc(Cl)cc2)NC2(C(=O)Nc3c(Cl)cc(Cl)cc32)C1C(=O)O` (centres unmarked) [Example 67.9b, 5,7-dichloro-5,7′-((4-chlorophenyl)difluoromethyl)-4′-((3,5-dichlorophenyl)carbamoyl)-2-oxospiro[indoline-3,2′-pyrrolidine]-3′-carboxylic acid], the “Nauc @ 1 μM” value is “+ (NAUC “+” refers to an observed NAUC <140% of positive control)”, the “Nauc @ 3 μM” value is on record as “++ (NAUC “++” refers to an observed NAUC 170-140% of positive control)” and the “Nauc @ 10 μM” value is “+++ (NAUC “+++” refers to an observed NAUC>170% of positive control)”.

For the compound `O=C(Nc1cc(Cl)cc(Cl)c1)C1C(C(F)(F)c2cccc(Cl)c2)NC2(C(=O)Nc3c(Cl)cc(Cl)cc32)C1C(=O)O` (centres unmarked) [Example 68.a], the “Nauc @ 10 μM” value was “+ (NAUC “+” refers to an observed NAUC <140% of positive control)”.

`O=C(Nc1cc(Cl)cc(Cl)c1)C1C(C(F)(F)c2cccc(Cl)c2)NC2(C(=O)Nc3c(Cl)cc(Cl)cc32)C1C(=O)O` (centres unmarked) [Example 68.b]: the “Nauc @ 10 μM” value was “+ (NAUC “+” refers to an observed NAUC <140% of positive control)”.

As to `O=C(Nc1cc(Cl)cc(Cl)c1)C1C(C(F)(F)c2cccc(Cl)c2)NC2(C(=O)Nc3c(Cl)cc(Cl)cc32)C1C(=O)O` (centres unmarked) [Example 68.c], the “Nauc @ 1 μM” value is on record as “+ (NAUC “+” refers to an observed NAUC <140% of positive control)”, the “Nauc @ 3 μM” value is “+++ (NAUC “+++” refers to an observed NAUC>170% of positive control)” and the “Nauc @ 10 μM” value is given as “+++ (NAUC “+++” refers to an observed NAUC>170% of positive control)”.

In the case of `O=C(Nc1cc(Cl)cc(Cl)c1)C1C(C(F)(F)c2ccccc2C(F)(F)F)NC2(C(=O)Nc3c(Cl)cc(Cl)cc32)C1C(=O)O` (centres unmarked) [Example 69.a], the “Nauc @ 10 μM” value was “+ (NAUC “+” refers to an observed NAUC <140% of positive control)”.

Take `O=C(Nc1cc(Cl)cc(Cl)c1)C1C(C(F)(F)c2ccccc2C(F)(F)F)NC2(C(=O)Nc3c(Cl)cc(Cl)cc32)C1C(=O)O` (centres unmarked) [Example 69.b]: the “Nauc @ 1 μM” value is “++ (NAUC “++” refers to an observed NAUC 170-140% of positive control)”, the “Nauc @ 3 μM” value is on record as “+++ (NAUC “+++” refers to an observed NAUC>170% of positive control)” and the “Nauc @ 10 μM” value is on record as “++ (NAUC “++” refers to an observed NAUC 170-140% of positive control)”.

In the case of `O=C(Nc1cc(Cl)cc(Cl)c1)C1C(C(F)(F)c2cccc(C(F)(F)F)c2)NC2(C(=O)Nc3c(Cl)cc(Cl)cc32)C1C(=O)O` (centres unmarked) [Example 70.a], the “Nauc @ 10 μM” value is listed as “+ (NAUC “+” refers to an observed NAUC <140% of positive control)”.

For `O=C(Nc1cc(Cl)cc(Cl)c1)C1C(C(F)(F)c2cccc(C(F)(F)F)c2)NC2(C(=O)Nc3c(Cl)cc(Cl)cc32)C1C(=O)O` (centres unmarked) [Example 70.b], the “Nauc @ 10 μM” value is given as “+ (NAUC “+” refers to an observed NAUC <140% of positive control)”.
